Laboratory results as given in US10471046B2, “Method for treating, preventing, or reducing the risk of skin infection” (Melinta Subsidiary Corp., priority 2014, dated 2019).
Values after ≈ are worked out from the molar mass of the structure shown.

System: S. aureus
Test: Minimum inhibitory concentrations (MICs) for S. aureus of exemplary compounds (Table 2)
Assay type: cell-based
Details: Staphylococcus aureus, minimum inhibitory concentrations for S. aureus; read-out: MICs
In short: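 Growth of S. aureus in media with or without compound, by broth microdilution in microtiter trays following NCCLS M7-A5 guidelines. Values are MICs in μg/mL.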

MIC | SMILES
2 µg/mL (≈ 4.31 µM) | CC(=O)NC[C@H]1CN(c2ccc(-c3ccc(CNCc4cccnc4N)cc3)c(F)c2)C(=O)O1 [Compound 4152, N-[3-(4′-{[(2-Amino-pyridin-3-ylmethyl)-amino]-methyl}-2-fluoro-biphenyl-4-yl)-2-oxo-oxazolidin-5-(S)-ylmethyl]-acetamide]
4 µg/mL | CC(=O)NC[C@H]1CN(c2ccc(-c3ccc(CNCC4CCCN4)cc3)c(F)c2)C(=O)O1 (mixture of isomers) [Compound 4279, N-[3-(2-Fluoro-4′-{[(pyrrolidin-2-(R/S)-ylmethyl)-amino]-methyl}-biphenyl-4-yl)-2-oxo-oxazolidin-5-(S)-ylmethyl]-acetamide]
0.25 µg/mL (≈ 0.566 µM) | CC(=O)NC[C@H]1CN(c2ccc(-c3ccc(CSc4cnn[nH]4)cc3)c(F)c2)C(=O)O1 [Compound 2016, N-{3-[2-Fluoro-4′-(3H-[1,2,3]triazol-4-ylsulfanylmethyl)-biphenyl-4-yl]-2-oxo-oxazolidin-5-(S)-ylmethyl}-acetamide]
2 µg/mL (≈ 3.87 µM) | CC(=O)NC[C@H]1CN(c2ccc(-c3ccc(CNCc4[nH]ncc4Br)cc3)c(F)c2)C(=O)O1 [Compound 4169, N-[3-(4′-{[(4-Bromo-2H-pyrazol-3-ylmethyl)-amino]-methyl}-2-fluoro-biphenyl-4-yl)-2-oxo-oxazolidin-5-(S)-ylmethyl]-acetamide]
2 µg/mL (≈ 4.08 µM) | CC(=O)NC[C@H]1CN(c2ccc(-c3ccc(CNCc4ccc(N(C)C)cc4)cc3)c(F)c2)C(=O)O1 [Compound 4062, N-(3-{4′-[(4-Dimethylamino-benzylamino)-methyl]-2-fluoro-biphenyl-4-yl}-2-oxo-oxazolidin-5-(S)-ylmethyl)-acetamide]
8 µg/mL (≈ 17.6 µM) | CC(=O)NC[C@H]1CN(c2ccc(-c3ccc(CNCc4n[nH]c(=O)[nH]4)cc3)c(F)c2)C(=O)O1 [Compound 4178, N-[3-(2-Fluoro-4′-{[(5-(S)-oxo-4,5-dihydro-1H-[1,2,4]triazol-3-ylmethyl)-amino]-methyl}-biphenyl-4-yl)-2-oxo-oxazolidin-5-(S)-ylmethyl]-acetamide]
1 µg/mL (≈ 1.99 µM) | CC(=O)NC[C@H]1CN(c2ccc(-c3ccc(CNCCSc4nncs4)cc3)c(F)c2)C(=O)O1 [Compound 5003, N-[3-(2-Fluoro-4′-{[2-([1,3,4]thiadiazol-2-ylsulfanyl)-ethylamino]-methyl}-biphenyl-4-yl)-2-oxo-oxazolidin-5-(S)-ylmethyl]-acetamide]
2 µg/mL (≈ 4 µM) | CSc1ccc(CNCc2ccc(-c3ccc(N4C[C@H](CNC(C)=O)OC4=O)cc3F)cc2)s1 [Compound 4167, N-[3-(2-Fluoro-4′-{[(5-methylsulfanyl-thiophen-2-ylmethyl)-amino]-methyl}-biphenyl-4-yl)-2-oxo-oxazolidin-5-(S)-ylmethyl]-acetamide]
2 µg/mL (≈ 4.14 µM) | CC(=O)NC[C@H]1CN(c2ccc(-c3ccc(CNC(=O)c4csc(C)n4)cc3)c(F)c2)C(=O)O1 [Compound 4242, 2-Methyl-thiazole-4-carboxylic acid {4′-[5-(S)-(acetylamino-methyl)-2-oxo-oxazolidin-3-yl]-2′-fluoro-biphenyl-4-ylmethyl}-amide]
0.25 µg/mL (≈ 0.545 µM) | CC(=O)NC[C@H]1CN(c2ccc(-c3ccc(CSc4nncs4)cc3)c(F)c2)C(=O)O1 [Compound 2029, N-{3-[2-Fluoro-4′-([1,3,4]thiadiazol-2-ylsulfanylmethyl)-biphenyl-4-yl]-2-oxo-oxazolidin-5-(S)-ylmethyl}-acetamide]
0.25 µg/mL (≈ 0.466 µM) | CC(=O)NC[C@H]1CN(c2ccc(-c3ccc(CNCc4csc(-c5cccs5)n4)cc3)c(F)c2)C(=O)O1 [Compound 4113, N-[3-(2-Fluoro-4′-{[(2-thiophen-2-yl-thiazol-4-ylmethyl)-amino]-methyl}-biphenyl-4-yl)-2-oxo-oxazolidin-5-(S)-ylmethyl]-acetamide]
1 µg/mL (≈ 2.2 µM) | CC(=O)NC[C@H]1CN(c2ccc(-c3ccc(CNCc4ncsn4)cc3)c(F)c2)C(=O)O1 [Compound 4206, N-[3-(2-Fluoro-4′-{[([1,2,4]thiadiazol-3-ylmethyl)-amino]-methyl}-biphenyl-4-yl)-2-oxo-oxazolidin-5-(S)-ylmethyl]-acetamide]
8 µg/mL (≈ 15.2 µM) | CC(=O)NC[C@H]1CN(c2ccc(-c3ccc(CNCc4ccc(S(N)(=O)=O)cc4)cc3)c(F)c2)C(=O)O1 [Compound 4093, N-(3-{2-Fluoro-4′-[(4-sulfamoyl-benzylamino)-methyl]-biphenyl-4-yl}-2-oxo-oxazolidin-5-(S)-ylmethyl)-acetamide]

Continued, molecule first:

SMILES | MIC
CC(=O)NC[C@H]1CN(c2ccc(-c3ccc([C@@H](O)CNCc4cocn4)cc3)c(F)c2)C(=O)O1 [Compound 4199, N-[3-(2-Fluoro-4′-{1-(R)-hydroxy-2-[(oxazol-4-ylmethyl)-amino]-ethyl}-biphenyl-4-yl)-2-oxo-oxazolidin-5-(S)-ylmethyl]-acetamide] | 4 µg/mL (≈ 8.54 µM)
CC(=O)NC[C@H]1CN(c2ccc(-c3ccc(C(=N)NCc4ccco4)cc3)c(F)c2)C(=O)O1 [Compound 4222, N-{3-[2-Fluoro-4′-(N-furan-2-ylmethyl-carbamimidoyl)-biphenyl-4-yl]-2-oxo-oxazolidin-5-(S)-ylmethyl}-acetamide] | 16 µg/mL (≈ 35.5 µM)
CC(=O)NC[C@H]1CN(c2ccc(-c3ccc(CN(C)Cc4ccnc5ccccc45)cc3)c(F)c2)C(=O)O1 [Compound 4032, N-(3-{2-Fluoro-4′-[(methyl-quinolin-4-ylmethyl-amino)-methyl]-biphenyl-4-yl}-2-oxo-oxazolidin-5-(S)-ylmethyl)-acetamide] | 1 µg/mL (≈ 1.95 µM)
CC(=O)NC[C@H]1CN(c2ccc(-c3ccc(CN[C@H]4CCCNC4=O)cc3)c(F)c2)C(=O)O1 [Compound 2059, N-(3-{2-Fluoro-4′-[(2-oxo-piperidin-3-(S)-ylamino)-methyl]-biphenyl-4-yl}-2-oxo-oxazolidin-5-(S)-ylmethyl)-acetamide] | 2 µg/mL (≈ 4.4 µM)
CC(=O)NC[C@H]1CN(c2ccc(-c3ccc([S+]([O-])Cc4ccncc4)cc3)c(F)c2)C(=O)O1 (stereo partly drawn) [Compound 3002, N-{3-[2-Fluoro-4′-(pyridin-4-ylmethanesulfinyl)-biphenyl-4-yl]-2-oxo-oxazolidin-5-(S)-ylmethyl}-acetamide] | 1 µg/mL (≈ 2.14 µM)
CC(=O)NC[C@H]1CN(c2ccc(-c3ccc(Cn4ccc(N)n4)cc3)c(F)c2)C(=O)O1 [Compound 1053, N-{3-[4′-(3-Amino-pyrazol-1-ylmethyl)-2-fluoro-biphenyl-4-yl]-2-oxo-oxazolidin-5-(S)-ylmethyl}-acetamide] | 1 µg/mL (≈ 2.36 µM)
CC(=O)NC[C@H]1CN(c2ccc(-c3ccc(C(=O)NCc4ccco4)cc3)c(F)c2)C(=O)O1 [Compound 4111, 4′-[5-(S)-(Acetylamino-methyl)-2-oxo-oxazolidin-3-yl]-2′-fluoro-biphenyl-4-carboxylic acid (furan-2-ylmethyl)-amide] | 2 µg/mL (≈ 4.43 µM)
CC(=O)NC[C@H]1CN(c2ccc(-c3ccc([C@H](CO)N4CCCC(F)(F)C4)cc3)c(F)c2)C(=O)O1 [Compound 1074, N-(3-{4′-[1-(R)-(3,3-Difluoro-piperidin-1-yl)-2-hydroxy-ethyl]-2-fluoro-biphenyl-4-yl}-2-oxo-oxazolidin-5-(S)-ylmethyl)-acetamide] | 4 µg/mL (≈ 8.14 µM)
O=C1O[C@@H](Cn2cncn2)CN1c1ccc(-c2ccc(CNCc3ccncc3)cc2)c(F)c1 [Compound 4230, 3-(2-Fluoro-4′-{[(pyridin-4-ylmethyl)-amino]-methyl}-biphenyl-4-yl)-5-(R)-[1,2,4]triazol-1-ylmethyl-oxazolidin-2-one] | 32 µg/mL (≈ 69.8 µM)
CC(=O)NC[C@H]1CN(c2ccc(-c3ccc(Cn4ccnc4)nc3)c(F)c2)C(=O)O1 [Compound 1077, N-{3-[3-Fluoro-4-(6-imidazol-1-ylmethyl-pyridin-3-yl)-phenyl]-2-oxo-oxazolidin-5-(S)-ylmethyl}-acetamide] | 4 µg/mL (≈ 9.77 µM)
CC(=O)NC[C@H]1CN(c2ccc(-c3ccc(CNC(=O)[C@@H]4C[C@@H](O)CN4C(=O)OC(C)(C)C)cc3)c(F)c2)C(=O)O1 [Compound 4311, 2-({4′-[5-(S)-(Acetylamino-methyl)-2-oxo-oxazolidin-3-yl]-2′-fluoro-biphenyl-4-ylmethyl}-carbamoyl)-4-(R)-hydroxy-pyrrolidine-1-(S)-carboxylic acid tert-butyl ester] | 16 µg/mL (≈ 28 µM)
CC(=O)NC[C@H]1CN(c2ccc(-c3ccc(CNC(=O)c4ccnc5ccccc45)cc3)c(F)c2)C(=O)O1 [Compound 4008, Quinoline-4-carboxylic acid {4′-[5-(S)-(acetylamino-methyl)-2-oxo-oxazolidin-3-yl]-2′-fluoro-biphenyl-4-ylmethyl}-amide] | 1 µg/mL (≈ 1.95 µM)
CC(=O)NC[C@H]1CN(c2ccc(-c3ccc(Cn4cnc5c(N)ncnc54)cc3)c(F)c2)C(=O)O1 [Compound 1110, N-{3-[4′-(6-Amino-purin-9-ylmethyl)-2-fluoro-biphenyl-4-yl]-2-oxo-oxazolidin-5-(S)-ylmethyl}-acetamide] | 1 µg/mL (≈ 2.1 µM)
CC(=O)NC[C@H]1CN(c2ccc(-c3ccc(CNC(=O)[C@@H]4CCCN4)cc3)c(F)c2)C(=O)O1 [Compound 4309, Pyrrolidine-2-(S)-carboxylic acid {4′-[5-(S)-(acetylamino-methyl)-2-oxo-oxazolidin-3-yl]-2′-fluoro-biphenyl-4-ylmethyl}-amide] | 8 µg/mL (≈ 17.6 µM)
CC(=O)NC[C@H]1CN(c2ccc(-c3ccc(Cn4nnc(N)n4)cc3)c(F)c2)C(=O)O1 [Compound 1024, N-{3-[4′-(5-Amino-tetrazol-2-ylmethyl)-2-fluoro-biphenyl-4-yl]-2-oxo-oxazolidin-5-(S)-ylmethyl}-acetamide] | 0.25 µg/mL (≈ 0.588 µM)
CC(=O)NC[C@H]1CN(c2ccc(-c3ccc(CNCc4cccn4S(=O)(=O)c4ccccc4)cc3)c(F)c2)C(=O)O1 [Compound 4100, N-[3-(4′-{[(1-Benzenesulfonyl-1H-pyrrol-2-ylmethyl)-amino]-methyl}-2-fluoro-biphenyl-4-yl)-2-oxo-oxazolidin-5-(S)-ylmethyl]-acetamide] | 4 µg/mL (≈ 6.94 µM)
CC(=O)NC[C@H]1CN(c2ccc(-c3ccc(CNNC(=O)c4cccnc4)cc3)c(F)c2)C(=O)O1 [Compound 4237, N-(3-{2-Fluoro-4′-[N′-(pyridine-3-carbonyl)-hydrazinomethyl]-biphenyl-4-yl}-2-oxo-oxazolidin-5-(S)-ylmethyl)-acetamide] | 0.25 µg/mL (≈ 0.524 µM)
